The results in this text go back to paper PMC10398685 (ACS Omega, 2023).

Entries after “also recorded” stand apart in the source; their conditions may differ.

Data set [1] concerns the target SARS-CoV-2 nsp14 7-N MTase (Severe acute respiratory syndrome coronavirus 2, UniProt P0DTD1). Description: biochemical. Conditions: Echo MS assay, 20 nM nsp14, 4 μM SAM, 4 μM GpppA, duplicates.
Data set [2] has as its system SARS-CoV-2. Description: microbe, parasite or virus in culture. Format: cell-based. Conditions: Severe acute respiratory syndrome coronavirus 2, 72 h; Calu-3 cells, MOI~0.03, 3 days incubation, CPE by XTT; read-out: EC50 (anti-SARS-CoV-2 activity).
Data set [3] in a line: Microsomal stability, human. Format: in vitro ADME. Particulars: triplicates; for Microsomal stability Rem. at 45 min / Microsomal stability T1/2: 0.5 mg/ml human microsomes, 5uM; for microsomal CLint at 5 µM / half-life at 5 µM: pooled liver microsomes, pH 7.4, 0.5 mg/ml human microsomes; for half-life at 5 µM: read-out: Microsomal stability T1/2. From the text: 50% methanol. The samples were then transferred to ECHO® -compatible 384-well plates and the amount of analytes were quantified by the ECHO -MS® System (Sciex) where acoustic droplet ejection module is coupled with Sciex 6500® triple quadrupole mass spectrometer operating with an electrospray ionization source. Spectrometer was run in the multiple reaction monitoring (MRM) mode. When necessary, the processed samples were further diluted in 50% methanol to fit in the calibration range. Calibration curves of the compounds in 50% methanol were measured alongside the samples within the same run. […]
3.4. Microsomal stability […]
The reactions were […]
terminated by the addition of four volumes of ice-cold methanol, mixed vigorously and left at -20 °C for 1 h. After that, the samples were centrifuged and the supernatants were analyzed by means of ECHO-MS® System (Sciex, Framingham, MA, USA). Zero time points were prepared by adding ice-cold methanol to the mixture of compound with cofactors prior to the addition of microsomes. The microsomal half-lives (t1/2) were calculated using the equation t1/2=0.693/k, where k is the slope found in the linear fit of the natural logarithm of the fraction remaining of the parent compound vs. incubation time. Intrinsic clearance (CLint) was calculated using the following formula: CLint = V * ln2 /t1/2, where V = incubation volume per milligram of microsomal protein (µL/mg) and t1/2 = microsomal half-life. […]
(§1) 3.6. Caco-2 permeability assay
(§2) Transepithelial bi-directional transport of tested compounds (5 µM, pH 7.4/7.4) across the Caco-2 monolayers was studied using the BD BioCoat HTS Caco -2 assay system (BD Biosciences, Bedford, MA) as described in detail elsewhere.17 Aliquots were collected from the donor and acceptor compartment at the end of transport period (3 h), integrity of monolayers were verified using Lucifer Yellow dye and the compounds were quantified using LC-MS/MS (Sciex 6500® triple quadrupole). The apparent permeability coefficient (Papp) was calculated from the following equation: Papp = (dQ / dt) / C0 * A, where dQ/dt is the rate of absorption of the drug across the cells, C0 is the donor compartment concentration at time zero, and A is the area of the monolayer. Efflux ratio was expressed as (Papp B-A) / (Papp A-B). Recovery (%) was determined as (total compound mass in donor and receiver compartments at the end of the incubation / initial compound mass in the donor compartment) x 100.

The nature of data set [4]: Plasma stability, human. Format: in vitro ADME. Conditions: 5uM, triplicates, 37 °C. On the procedure:
The microsomal half-lives (t1/2) were calculated using the equation t1/2=0.693/k, where k is the slope found in the linear fit of the natural logarithm of the fraction remaining of the parent compound vs. incubation time. […]
To determine plasma stability of the compounds, 5 μM of these were incubated with human pooled plasma from 50 donors (Biowest) for 120 min and 240 min at 37 °C. The reactions were terminated by adding four volumes of ice -cold methanol, the samples were then mixed vigorously and left at -20 °C for 1 h. After that, the samples were centrifuged, and the supernatant was analyzed by means of ECHO -MS® System (Sciex). Zero time points were prepared by adding ice-cold methanol to the compound prior the addition of the plasma. […]

Data set [5] in a line: in vitro. Conditions: African green monkey.
Data set [6] can be described thus: Caco-2 permeability assay. The class given is in vitro ADME. Conditions: human; for recovery at 3 h, 5 µM / Papp A→B at 3 h, 5 µM / Papp B→A at 3 h, 5 µM: Caco-2, 5 µM; for Papp A→B at 3 h, 5 µM / Papp B→A at 3 h, 5 µM: pH 7.4/7.4, 3 h; for efflux ratio at 3 h, 5 µM: Caco-2, (Papp B-A)/(Papp A-B). The procedure: as §1, §2
Data set [7] addresses T1, SARS-CoV-2 nsp10-nsp16 complex (Severe acute respiratory syndrome coronavirus 2, UniProt P0DTD1).
T1 construct: Nsp10-nsp16 reactions contained 100 nM nsp10-nsp16 complex
Format: biochemical. Particulars: tested at 1 μM by SPA assay, duplicate.

Broadly, the IC50 is the concentration at which inhibition is half-maximal. In general, EC50 refers to the concentration that produces a half-maximal response. The term microsomal CLint denotes the capacity of the preparation to metabolise the compound, expressed as a volume cleared per time. In the case of `CCN(C[C@H]1O[C@@H](n2cc(C#Cc3cnc4ccccc4c3)c3c(N)ncnc32)[C@H](O)[C@@H]1O)S(=O)(=O)c1ccc(OC)c(C#N)c1` [Compound 12e], in data set [1], the IC50 was 0.028 ± 0.005 µM. Besides, the concentration giving a half-maximal response (EC50) in data set [2] was over 100 µM. Further, in data set [3], the “Microsomal stability Rem. at 45 min” value is listed as 60.2 ± 3.5%, the microsomal CLint at 5 µM is 19.6 ± 6.1 µL/min/mg and the half-life at 5 µM is 91.3 ± 12.2 min. Moreover, in data set [4], the “Plasma stability Rem. at 120 min” value is given as 76.3 ± 13.7% and the “Plasma stability T1/2” value was “Stable”. The compound further registered a CC50 at 3 days in data set [5] of over 100 µM.
As a reminder, the Papp A→B is how fast a substance crosses the layer from the apical side. As usually defined, the Papp B→A is how fast a substance crosses the layer from the basolateral side. What is called efflux ratio is the permeability from basolateral to apical divided by that in the opposite direction, in the common usage. Regarding `CCN(C[C@H]1O[C@@H](n2cc(C#Cc3cccnc3)c3c(N)ncnc32)[C@H](O)[C@@H]1O)S(=O)(=O)c1ccc(OC)c(C#N)c1` [Compound 12l], 0.038 ± 0.0059 µM corresponded to half-maximal inhibition in data set [1] (IC50). For the same compound, the EC50 in data set [2] was over 100 µM. Besides, in data set [6], the recovery at 3 h, 5 µM came to 17%; the apical-to-basolateral permeability (Papp A→B) at 3 h, 5 µM came to 0.1 ×10⁻⁶ cm/s; the basolateral-to-apical permeability (Papp B→A) at 3 h, 5 µM came to 0.1 ×10⁻⁶ cm/s; the efflux ratio at 3 h, 5 µM stood at 0.9. In addition, in data set [3], the “Microsomal stability Rem. at 45 min” value came out at 78.6 ± 1.1%, the microsomal CLint at 5 µM was 11.2 ± 1.5 µL/min/mg and the half-life at 5 µM worked out at 113 ± 3.5 min. Further, in data set [4], the “Plasma stability Rem. at 120 min” value came to 89.8 ± 2.0% and the “Plasma stability T1/2” value is listed as “Stable”. In data set [5], the CC50 at 3 days is over 100 µM.
In turn, `COc1ccc(S(=O)(=O)N(C)C[C@H]2O[C@@H](n3cc(C#Cc4cnc5ccccc5c4)c4c(N)ncnc43)[C@H](O)[C@@H]2O)cc1C#N` [Compound 12q] had an IC50 in data set [1] of 0.019 ± 0.0025 µM. Moreover, the half-maximal effective concentration (EC50) in data set [2] was over 100 µM. In data set [6], the recovery at 3 h, 5 µM is 4%; the Papp A→B at 3 h, 5 µM came out at 0.2 ×10⁻⁶ cm/s; the efflux ratio at 3 h, 5 µM stood at 0.4. Also, in data set [3], the “Microsomal stability Rem. at 45 min” value was 105.0 ± 3.9% and the “Microsomal stability T1/2” value was “Stable; also recorded: excellent stability”. Besides, in data set [4], the “Plasma stability Rem. at 120 min” value is 97.2 ± 4.1% and the “Plasma stability T1/2” value was “Stable”. In data set [5], the CC50 at 3 days is over 100 µM. Moreover, the “Selectivity against SARS-CoV-2 nsp10-nsp16 complex” value (“Selectivity” below) in data set [7] is “selective”.
For `COc1ccc(S(=O)(=O)N(C)C[C@H]2O[C@@H](n3cc(C#Cc4ccc(C(N)=O)cc4)c4c(N)ncnc43)[C@H](O)[C@@H]2O)cc1C#N` [Compound 12r], in data set [1], the IC50 came out at 0.023 ± 0.0037 µM. In addition, the EC50 in data set [2] is over 100 µM. Moreover, in data set [6], the recovery at 3 h, 5 µM came to 1%; the apical-to-basolateral permeability (Papp A→B) at 3 h, 5 µM was 0.1 ± 0.1 ×10⁻⁶ cm/s; the Papp B→A at 3 h, 5 µM came out at 0.1 ×10⁻⁶ cm/s; the efflux ratio at 3 h, 5 µM amounted to 0.1. Further, in data set [3], the “Microsomal stability Rem. at 45 min” value was 83.3 ± 2.6% and the “Microsomal stability T1/2” value is reported as “Stable; also recorded: excellent stability”. Further, in data set [4], the “Plasma stability Rem. at 120 min” value turned out to be 89.7 ± 0.6% and the “Plasma stability T1/2” value is “Stable”. For the same compound, the CC50 at 3 days in data set [5] is over 100 µM. Besides, in data set [7], the “Selectivity” value is given as “selective”.
In data set [1], `COc1ccc(S(=O)(=O)N(C)C[C@H]2O[C@@H](n3cc(C#Cc4cccnc4)c4c(N)ncnc43)[C@H](O)[C@@H]2O)cc1C#N` [Compound 12s] had an IC50 of 0.021 ± 0.003 µM. Further, the EC50 in data set [2] is over 100 µM. Further, in data set [6], the recovery at 3 h, 5 µM came to 3%; the Papp A→B at 3 h, 5 µM was 0.4 ± 0.3 ×10⁻⁶ cm/s; the Papp B→A at 3 h, 5 µM amounted to 0.3 ± 0.1 ×10⁻⁶ cm/s; the efflux ratio at 3 h, 5 µM worked out at 1.3. Moreover, in data set [3], the “Microsomal stability Rem. at 45 min” value turned out to be 55.9 ± 4.7%, the microsomal CLint at 5 µM came out at 27.1 ± 2 µL/min/mg and the half-life at 5 µM was 53.7 ± 2.7 min. In data set [4], the “Plasma stability Rem. at 120 min” value came to 86.9 ± 0.9% and the “Plasma stability T1/2” value is on record as “Stable”. Besides, the CC50 at 3 days in data set [5] is over 100 µM. Also, in data set [7], the “Selectivity” value was “selective”.
`CCN(C[C@H]1O[C@@H](n2cc(C#Cc3nc4ccccc4[nH]3)c3c(N)ncnc32)[C@H](O)[C@@H]1O)S(=O)(=O)c1ccc(OC)c(C#N)c1` [Compound 12a]: the half-maximal inhibitory concentration (IC50) in data set [1] was 0.037 ± 0.0065 µM. In addition, the EC50 in data set [2] was over 100 µM. Besides, in data set [3], the “Microsomal stability Rem. at 45 min” value is 18.5 ± 4.0%, the microsomal CLint at 5 µM came to 77.3 ± 10.3 µL/min/mg and the half-life at 5 µM was 17.3 ± 2.2 min. Also, in data set [4], the “Plasma stability Rem. at 120 min” value is 84.3 ± 2.6% and the “Plasma stability T1/2” value is on record as “Stable”. Moreover, in data set [5], the CC50 at 3 days was over 100 µM.
In data set [1], `CCN(C[C@H]1O[C@@H](n2cc(C#Cc3ccc(N)nc3)c3c(N)ncnc32)[C@H](O)[C@@H]1O)S(=O)(=O)c1ccc(OC)c(C#N)c1` [Compound 12h] came in with an IC50 of 0.046 ± 0.0058 µM. In addition, in data set [2], the half-maximal effective concentration (EC50) is over 100 µM. In data set [3], the “Microsomal stability Rem. at 45 min” value was found to be 47.2 ± 3.5%, the microsomal CLint at 5 µM was 34.9 ± 4 µL/min/mg and the half-life at 5 µM came to 38 ± 3.7 min. In data set [4], the “Plasma stability Rem. at 120 min” value is listed as 102.3 ± 4.8% and the “Plasma stability T1/2” value is recorded as “Stable”. In addition, the CC50 at 3 days in data set [5] was over 100 µM.
Consider `CCN(C[C@H]1O[C@@H](n2cc(C#Cc3ccc(C(N)=O)cc3)c3c(N)ncnc32)[C@H](O)[C@@H]1O)S(=O)(=O)c1ccc(OC)c(C#N)c1` [Compound 12o], for which the IC50 in data set [1] turned out to be 0.049 ± 0.0062 µM. Moreover, the EC50 in data set [2] is over 100 µM. Besides, in data set [3], the “Microsomal stability Rem. at 45 min” value was 30.5 ± 5.3%, the microsomal CLint at 5 µM is 53.8 ± 5.8 µL/min/mg and the half-life at 5 µM was determined as 26.2 ± 3.4 min. In data set [4], the “Plasma stability Rem. at 120 min” value was 95.6 ± 5.1% and the “Plasma stability T1/2” value is “Stable”. In data set [5], the CC50 at 3 days is over 100 µM.
